One assay deals with human NaV 1.8 (Homo sapiens, UniProt Q9Y5Y9). The experiment in a line: E-VIPR assay detecting and measuring NaV inhibition properties. The format is cell-based. The following applies: HEK cells expressing truncated human NaV 1.8; in the presence of human serum (compound numbers followed by *); read-out: IC50 in the E-VIPR Assay, performed in the presence of human serum. In outline: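 HEK cells expressing truncated, fully active human NaV1.8, with KIR2.1 BacMam co-transduction, were loaded with CC2-DMPE/DiSBAC6(3) voltage-sensing dyes for 20 min at room temperature. Compounds were tested in 11-point 3-fold dilutions (300 nM top final), optionally with 25% human serum, under electrical stimulation with FRET read-out.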
human NaV 1.8, sequence (Q9Y5Y9 126-399 limits assumed): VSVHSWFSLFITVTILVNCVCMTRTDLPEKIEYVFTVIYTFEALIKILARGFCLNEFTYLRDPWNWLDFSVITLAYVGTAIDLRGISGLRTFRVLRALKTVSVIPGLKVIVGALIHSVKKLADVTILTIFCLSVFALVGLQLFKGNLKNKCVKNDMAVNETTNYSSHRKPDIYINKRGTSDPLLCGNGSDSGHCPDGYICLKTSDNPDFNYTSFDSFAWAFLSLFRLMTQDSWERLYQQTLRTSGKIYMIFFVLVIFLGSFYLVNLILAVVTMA
human NaV 1.8, sequence (Q9Y5Y9 660-890 limits assumed): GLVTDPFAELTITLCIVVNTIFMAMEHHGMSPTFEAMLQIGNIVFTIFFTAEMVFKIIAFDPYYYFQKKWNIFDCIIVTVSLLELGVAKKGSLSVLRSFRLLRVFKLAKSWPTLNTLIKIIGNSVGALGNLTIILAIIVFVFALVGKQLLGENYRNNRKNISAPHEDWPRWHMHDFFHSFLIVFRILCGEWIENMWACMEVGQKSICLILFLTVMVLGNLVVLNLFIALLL
human NaV 1.8, sequence (Q9Y5Y9 1148-1722 limits assumed): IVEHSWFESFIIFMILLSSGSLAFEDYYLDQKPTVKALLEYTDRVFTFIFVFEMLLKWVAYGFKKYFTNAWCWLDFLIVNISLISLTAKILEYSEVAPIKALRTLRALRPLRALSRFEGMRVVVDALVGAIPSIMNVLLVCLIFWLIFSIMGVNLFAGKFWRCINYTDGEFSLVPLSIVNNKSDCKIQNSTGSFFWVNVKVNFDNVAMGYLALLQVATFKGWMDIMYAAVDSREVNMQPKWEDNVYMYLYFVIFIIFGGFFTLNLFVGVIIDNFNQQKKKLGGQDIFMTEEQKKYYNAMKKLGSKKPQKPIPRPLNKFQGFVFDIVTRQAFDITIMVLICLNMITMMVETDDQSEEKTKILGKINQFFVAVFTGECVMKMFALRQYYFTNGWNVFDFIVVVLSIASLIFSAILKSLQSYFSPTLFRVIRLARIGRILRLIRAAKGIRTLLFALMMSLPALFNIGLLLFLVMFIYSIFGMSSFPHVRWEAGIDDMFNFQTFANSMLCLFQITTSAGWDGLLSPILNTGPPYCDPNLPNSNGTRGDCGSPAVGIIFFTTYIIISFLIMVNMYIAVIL
Broadly, the IC50 is the point on the concentration scale where inhibition reaches its midpoint. With `CNCc1cc(NC(=O)C2OC(C)(C(F)(F)F)C(C)C2c2ccc(F)c(F)c2OC)c(F)cn1` (centres unmarked) [Compound 58, 3-(3,4-difluoro-2-methoxy-phenyl)-N-[5-fluoro-2-(methylaminomethyl)-4-pyridyl]-4,5-dimethyl-5-(trifluoromethyl)tetrahydrofuran-2-carboxamide], the IC50 was no less than 1000 nM.

As to `COc1c([C@@H]2[C@@H](C(=O)Nc3ccnc(C(C)O)c3)O[C@](C)(C(F)(F)F)[C@@H]2C)ccc(F)c1F` (single isomer, unassigned) [Compound 531], the IC50 is no less than 1000 nM.

Staying with this assay, now noted: HEK cells expressing truncated human NaV 1.8; no human serum; read-out: IC50 in the E-VIPR Assay.
Take `CCOc1c([C@@H]2[C@@H](C(=O)Nc3ccnc(S(C)(=N)=O)c3)O[C@](C)(C(F)(F)F)[C@@H]2C)ccc(F)c1F` (single isomer, unassigned) [Compound 11]: the IC50 is no less than 1000 nM.

On to `COc1c([C@H]2[C@H](C(=O)Nc3ccnc(CO)c3)O[C@@](C)(C(F)(F)F)[C@H]2C)ccc(F)c1F` (single isomer, unassigned) [Compound 14], for which the IC50 was less than 10 nM.

In the case of `COc1c([C@H]2[C@H](C(=O)NCCc3ncc[nH]3)O[C@@](C)(C(F)(F)F)[C@H]2C)ccc(F)c1F` [Compound 272, (2R,3S,4S,5R)-3-(3,4-difluoro-2-methoxy-phenyl)-N-[2-(1H-imidazol-2-yl)ethyl]-4,5-dimethyl-5-(trifluoromethyl)tetrahydrofuran-2-carboxamide], the IC50 is no less than 1000 nM.

Take `COCC(O)c1cc(NC(=O)[C@@H]2O[C@@](C)(C(F)(F)F)[C@@H](C)[C@H]2c2ccc(F)c(F)c2OCCN2CC(F)C2)ccn1` (single isomer, unassigned) [Compound 608, rel-(2R*,3S*,4S*,5R*)-3-(3,4-difluoro-2-(2-(3-fluoroazetidin-1-yl)ethoxy)phenyl)-N-(2-(1-hydroxy-2-methoxyethyl)pyridin-4-yl)-4,5-dimethyl-5-(trifluoromethyl)tetrahydrofuran-2-carboxamide]: the IC50 lay within 10 to 100 nM.

For the compound `COc1c(C2C(C(=O)Nc3ccnc(C(O)C(C)O)c3)OC(C)(C(F)(F)F)C2C)ccc(F)c1F` (centres unmarked) [Compound 208, 3-(3,4-difluoro-2-methoxy-phenyl)-N-[2-(1,2-dihydroxypropyl)-4-pyridyl]-4,5-dimethyl-5-(trifluoromethyl)tetrahydrofuran-2-carboxamide], the IC50 is less than 10 nM.

Consider `C[C@H]1[C@@H](c2ccc(F)c(F)c2OC(F)F)[C@H](C(=O)Nc2ccnc(S(C)(=O)=O)c2)O[C@@]1(C)C(F)(F)F` (single isomer, unassigned) [Compound 85], for which the IC50 is less than 10 nM.

For `COc1c([C@H]2[C@H](C(=O)NCC(C)(C)C(N)=O)O[C@@](C)(C(F)(F)F)[C@H]2C)ccc(F)c1F` [Compound 282, (2R,3S,4S,5R)-N-(3-amino-2,2-dimethyl-3-oxopropyl)-3-(3,4-difluoro-2-methoxyphenyl)-4,5-dimethyl-5-(trifluoromethyl)tetrahydrofuran-2-carboxamide], the IC50 is no less than 1000 nM.

As to `COc1c(C2C(C(=O)Nc3ccc(C(N)=O)nc3)OC(C)(C(F)(F)F)C2C)ccc(C(F)F)c1F` (centres unmarked) [Compound 159, 5-[[3-[4-(difluoromethyl)-3-fluoro-2-methoxy-phenyl]-4,5-dimethyl-5-(trifluoromethyl)tetrahydrofuran-2-carbonyl]amino]pyridine-2-carboxamide], the IC50 was no less than 1000 nM.

For `COc1c([C@H]2[C@H](C(=O)Nc3ccnc(N4CCN[C@@H](C)C4=O)c3)O[C@@](C)(C(F)(F)F)[C@H]2C)ccc(F)c1F` [Compound 485, (2R,3S,4S,5R)-3-(3,4-difluoro-2-methoxyphenyl)-4,5-dimethyl-N-(2-((S)-3-methyl-2-oxopiperazin-1-yl)pyridin-4-yl)-5-(trifluoromethyl)tetrahydrofuran-2-carboxamide], the concentration for half-maximal inhibition (IC50) was less than 10 nM.

For the compound `CC(C)Oc1c([C@@H]2[C@@H](C(=O)Nc3ccnc(S(C)(=N)=O)c3)O[C@](C)(C(F)(F)F)[C@@H]2C)ccc(F)c1F` (single isomer, unassigned) [Compound 117], the IC50 lay within 100 to 1000 nM.

`COc1c([C@H]2[C@H](C(=O)NCCc3c(C)n[nH]c3C)O[C@@](C)(C(F)(F)F)[C@H]2C)ccc(F)c1F` [Compound 285, (2R,3S,4S,5R)-3-(3,4-difluoro-2-methoxyphenyl)-N-(2-(3,5-dimethyl-1H-pyrazol-4-yl)ethyl)-4,5-dimethyl-5-(trifluoromethyl)tetrahydrofuran-2-carboxamide]: the IC50 is no less than 1000 nM.

For the compound `COc1c([C@H]2[C@H](C(=O)Nc3ccnc(C(O)CN(C)C)c3)O[C@@](C)(C(F)(F)F)[C@H]2C)ccc(F)c1F` (stereo partly drawn) [Compound 378, (2R,3S,4S,5R)-3-(3,4-difluoro-2-methoxy-phenyl)-N-[2-[2-(dimethylamino)-1-hydroxy-ethyl]-4-pyridyl]-4,5-dimethyl-5-(trifluoromethyl)tetrahydrofuran-2-carboxamide], the IC50 was less than 10 nM.

Turning to `COc1c([C@H]2[C@H](C(=O)Nc3ccc(C4(N)COC4)nc3)O[C@@](C)(C(F)(F)F)[C@H]2C)ccc(F)c1F` [Compound 213, (2R,3S,4S,5R)-N-(6-(3-aminooxetan-3-yl)pyridin-3-y1)-3-(3,4-difluoro-2-methoxyphenyl)-4,5-dimethyl-5-(trifluoromethyl)tetrahydrofuran-2-carboxamide], the IC50 lay in the range of 10 to 100 nM.

With `Cc1nn(C(F)F)cc1NC(=O)[C@@H]1O[C@@](C)(C(F)(F)F)[C@@H](C)[C@H]1c1ccc(F)c(F)c1CN(C)C` [Compound 672, (2R,3S,4S,5R)-N-(1-(difluoromethyl)-3-methyl-1H-pyrazol-4-yl)-3-(2-((dimethylamino)methyl)-3,4-difluorophenyl)-4,5-dimethyl-5-(trifluoromethyl)tetrahydrofuran-2-carboxamide], the IC50 lay within 10 to 100 nM.

For the compound `C[C@H]1[C@@H](c2ccc(F)c(F)c2OCCO)[C@H](C(=O)Nc2ccnc(C(C)(C)O)c2)O[C@@]1(C)C(F)(F)F` [Compound 540, (2R,3S,4S,5R)-3-(3,4-difluoro-2-(2-hydroxyethoxy)phenyl)-N-(2-(2-hydroxypropan-2-yl)pyridin-4-yl)-4,5-dimethyl-5-(trifluoromethyl)tetrahydrofuran-2-carboxamide], the IC50 is less than 10 nM.

For the compound `C[C@H]1[C@@H](c2ccc(F)c(F)c2OC(F)F)[C@H](C(=O)Nc2ccnc(N3CCN(C)CC3=O)c2)O[C@@]1(C)C(F)(F)F` [Compound 516, (2R,3S,4S,5R)-3-[2-(difluoromethoxy)-3,4-difluoro-phenyl]-4,5-dimethyl-N-[2-(4-methyl-2-oxo-piperazin-1-yl)-4-pyridyl]-5-(trifluoromethyl)tetrahydrofuran-2-carboxamide], the IC50 was less than 10 nM.

Turning to `Cc1nocc1NC(=O)[C@@H]1O[C@@](C)(C(F)(F)F)[C@@H](C)[C@H]1c1ccc(F)c(F)c1OCCN1CC(C)(O)C1` [Compound 626, (2R,3S,4S,5R)-3-(3,4-difluoro-2-(2-(3-hydroxy-3-methylazetidin-1-yl)ethoxy)phenyl)-4,5-dimethyl-N-(3-methylisoxazol-4-yl)-5-(trifluoromethyl)tetrahydrofuran-2-carboxamide], the IC50 was 100 to 1000 nM.

As for `Cc1cnc(COc2c([C@H]3[C@H](C(=O)Nc4cccnc4)O[C@@](C)(C(F)(F)F)[C@H]3C)ccc(F)c2F)n1C` [Compound 651, (2R,3S,4S,5R)-3-(2-((1,5-dimethyl-1H-imidazol-2-yl)methoxy)-3,4-difluorophenyl)-4,5-dimethyl-N-(pyridin-3-yl)-5-(trifluoromethyl)tetrahydrofuran-2-carboxamide], the IC50 was less than 10 nM.

The record behind these values is patent US20240368135A1 (VERTEX PHARMACEUTICALS INCORPORATED, priority 2021, published 2024).
